Our source for the IC50 values is patent US20110294766A1, “16 Alpha, 17 Alpha-Acetal Glucocorticosteroidal Derivatives and their Use” (AstraZeneca AB, priority 2008, published 2011).

This assay concerns the target T1, recombinant human GR (Homo sapiens, UniProt P04150).
T1 construct: purchased Panvera/Invitrogen P2812 (kit P2893)
T1 sequence (P04150 1-777): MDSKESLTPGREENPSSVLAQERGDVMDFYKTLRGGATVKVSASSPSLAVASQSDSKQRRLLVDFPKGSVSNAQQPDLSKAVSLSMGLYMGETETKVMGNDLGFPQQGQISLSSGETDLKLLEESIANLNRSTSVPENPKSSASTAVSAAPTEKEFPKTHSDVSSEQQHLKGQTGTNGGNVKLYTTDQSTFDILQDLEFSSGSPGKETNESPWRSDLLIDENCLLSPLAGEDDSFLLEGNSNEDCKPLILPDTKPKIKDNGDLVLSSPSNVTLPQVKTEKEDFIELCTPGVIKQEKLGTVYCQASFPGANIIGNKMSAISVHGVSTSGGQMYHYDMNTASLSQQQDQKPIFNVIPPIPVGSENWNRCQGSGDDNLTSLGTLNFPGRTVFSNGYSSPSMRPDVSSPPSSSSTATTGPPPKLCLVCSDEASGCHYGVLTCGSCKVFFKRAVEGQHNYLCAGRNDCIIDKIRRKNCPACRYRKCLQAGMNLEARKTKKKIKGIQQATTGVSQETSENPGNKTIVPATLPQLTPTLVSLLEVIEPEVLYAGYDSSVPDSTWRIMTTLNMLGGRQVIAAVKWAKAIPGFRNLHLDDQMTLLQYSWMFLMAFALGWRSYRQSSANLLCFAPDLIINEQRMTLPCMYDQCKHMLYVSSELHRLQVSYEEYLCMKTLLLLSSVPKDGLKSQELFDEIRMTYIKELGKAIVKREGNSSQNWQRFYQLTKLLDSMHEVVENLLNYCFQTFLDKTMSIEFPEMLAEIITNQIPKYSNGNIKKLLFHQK
Description: Human Glucocorticoid Receptor (GR) Assay (fluorescence polarization, Panvera/Invitrogen kit). Particulars: GS Red tracer, 2 hours at room temperature, 100% control 10 μM Dexamethasone, read-out: Inhibition of GR binding, IC50. How it is done: Human Glucocorticoid Receptor (GR) Assay The assay is based on a commercial kit from Panvera/Invitrogen (Part number P2893). The assay technology is fluorescence polarization. The kit utilises recombinant human GR (Panvera, Part number P2812), a Fluoromone™ labelled tracer (GS Red, Panvera, Part number P2894) and a Stabilizing Peptide 10× (Panvera, Part number P2815). The GR and Stabilizing Peptide reagents are stored at −70° C. while the GS Red is stored at −20° C. Also included in the kit are 1M DTT (Panvera, Part number P2325, stored at −20° C.) and GR Screening buffer 10× (Panvera, Part number P2814, stored at −70° C. initially but once thawed stored at room temperature). Avoid repeated freeze/thaws for all reagents. The GR Screening buffer 10× comprises 100 mM potassium phosphate, 200 mM sodium molybdate, 1 mM EDTA and 20% DMSO. Test compounds (1 μL) and controls (1 μL) in 100% DMSO were added to black polystyrene 384-well plates (Greiner low volume black flat-bottom, part number 784076). 0% control was 100% DMSO and 100% control was 10 μM Dexamethasone. Background solution (8 μL; assay buffer 10×, Stabilizing Peptide, DTT and ice cold MQ water) was added to the background wells. GS Red solution (7 μL; assay buffer 10×, Stabilizing Peptide, DTT, GS Red and ice cold water) was added to all wells except background wells. GR solution (7 μL; assay buffer 10×, Stabilizing Peptide, DTT, GR and ice cold water) was added to all wells. The plate was sealed and incubated in a dark at room temperature for 2 hours. The plate was read in an Analyst plate reader (LJL Biosystems/Molecular Devices Corporation) or other similar plate reader capable of recording fluorescence polarization (excitation wavelength 530 nm, emission wavelength 590 nm and a dichroic mirror at 561 nm).
`C[C@]12C=CC(=O)C=C1[C@@H](F)C[C@H]1[C@@H]3C[C@H]4OC(c5ccc(OC(F)(F)F)cc5)O[C@@]4(C(=O)SCC#N)[C@@]3(C)C[C@H](O)[C@@]12F` (stereo partly drawn) [Example 19, S-(Cyanomethyl)(4aS,4bR,5S,6aS,6bS,9aR,10aS,10bS,12S)-4b,12-difluoro-5-hydroxy-4a,6a-dimethyl-2-oxo-8-[4-(trifluoromethoxy)phenyl]-2,4a,4b,5,6,6a,9a,10,10a,10b,11,12-dodecahydro-6bH-naphtho[2′,1′:4,5]indeno[1,2-d][1,3]dioxole-6b-carbothioate]: the IC50 worked out at 4.8 nM.
As for `Cc1ccc([C@H]2O[C@@H]3C[C@H]4[C@@H]5C[C@H](F)C6=CC(=O)C=C[C@]6(C)[C@@]5(F)[C@@H](O)C[C@]4(C)[C@]3(C(=O)SCF)O2)o1` [Example 7, S-(Fluoromethyl)(4aS,4bR,5S,6aS,6bS,8S,9aR,10aS,10bS,12S)-4b,12-difluoro-5-hydroxy-4a,6a-dimethyl-8-(5-methyl-2-furyl)-2-oxo-2,4a,4b,5,6,6a,9a,10,10a,10b,11,12-dodecahydro-6bH-naphtho[2′,1′:4,5]indeno[1,2-d][1,3]dioxole-6b-carbothioate], the figure is 1 nM.
Under `CSC(=O)[C@@]12OC(c3ccccc3F)O[C@@H]1C[C@H]1[C@@H]3CCC4=CC(=O)C=C[C@]4(C)[C@H]3[C@@H](O)C[C@@]12C` (stereo partly drawn) [Example 44, S-Methyl (4aR,4bS,5S,6aS,6bS,9aR,10aS,10bS)-8-(2-fluorophenyl)-5-hydroxy-4a,6a-dimethyl-2-oxo-2,4a,4b,5,6,6a,9a,10,10a,10b,11,12-dodecahydro-6bH-naphtho[2′,1′:4,5]indeno[1,2-d][1,3]dioxole-6b-carbothioate] stands 0.62 nM; under `C[C@]12C=CC(=O)C=C1CC[C@@H]1[C@@H]2[C@@H](O)C[C@@]2(C)[C@H]1C[C@H]1OC(c3ccccc3F)O[C@]12C(=O)SCF` (stereo partly drawn) [Example 43, S-(Fluoromethyl)(4aR,4bS,5S,6aS,6bS,9aR,10aS,10bS)-8-(2-fluorophenyl)-5-hydroxy-4a,6a-dimethyl-2-oxo-2,4a,4b,5,6,6a,9a,10,10a,10,11,12-dodecahydro-6bH-naphtho[2′,1′:4,5]indeno[1,2-d][1,3]dioxole-6b-carbothioate], 0.81 nM.
Turning to `C[C@]12C=CC(=O)C=C1[C@@H](F)C[C@H]1[C@@H]3C[C@H]4OC(c5cccs5)O[C@@]4(C(=O)SCF)[C@@]3(C)C[C@H](O)[C@@]12F` (stereo partly drawn) [Example 15, S-(Fluoromethyl)(4aS,4bR,5S,6aS,6bS,9aR,10aS,10bS,12S)-4b,12-difluoro-5-hydroxy-4a,6a-dimethyl-2-oxo-8-(2-thienyl)-2,4a,4b,5,6,6a,9a,10,10a,10b,11,12-dodecahydro-6bH-naphtho[2′,1′:4,5]indeno[1,2-d][1,3]dioxole-6b-carbothioate], the IC50 was 1 nM.
Under `C[C@]12C=CC(=O)C=C1[C@@H](F)C[C@H]1[C@@H]3C[C@H]4OC(c5ccc(C(F)(F)F)o5)O[C@@]4(C(=O)SCF)[C@@]3(C)C[C@H](O)[C@@]12F` (stereo partly drawn) [Example 14, S-(Fluoromethyl)(4aS,4bR,5S,6aS,6bS,9aR,10aS,10bS,12S)-4b,12-difluoro-5-hydroxy-4a,6a-dimethyl-2-oxo-8-[5-(trifluoromethyl)-2-furyl]-2,4a,4b,5,6,6a,9a,10,10a,10b,11,12-dodecahydro-6bH-naphtho[2′,1′:4,5]indeno[1,2-d][1,3]dioxole-6b-carbothioate] stands 1.2 nM.
Under `Cc1noc(C)c1C1O[C@@H]2C[C@H]3[C@@H]4C[C@H](F)C5=CC(=O)C=C[C@]5(C)[C@@]4(F)[C@@H](O)C[C@]3(C)[C@]2(C(=O)SCF)O1` (stereo partly drawn) [Example 33, S-(Fluoromethyl)(4aS,4bR,5S,6aS,6bS,9aR,10aS,10bS,12S)-8-(3,5-dimethylisoxazol-4-yl)-4b,12-difluoro-5-hydroxy-4a,6a-dimethyl-2-oxo-2,4a,4b,5,6,6a,9a,10,10a,10b,11,12-dodecahydro-6bH-naphtho[2′,1′:4,5]indeno[1,2-d][1,3]dioxole-6b-carbothioate] stands 1 nM; under `C[C@]12C=CC(=O)C=C1CC[C@@H]1[C@@H]2[C@@H](O)C[C@@]2(C)[C@H]1C[C@H]1OC(c3ccc(C(F)(F)F)cc3)O[C@]12C(=O)SCC#N` (stereo partly drawn) [Example 39, S-(Cyanomethyl)(4aR,4bS,5S,6aS,6bS,9aR,10aS,10bS)-5-hydroxy-4a,6a-dimethyl-2-oxo-8-[4-(trifluoromethyl)phenyl]-2,4a,4b,5,6,6a,9a,10,10a,10,11,12-dodecahydro-6bH-naphtho[2′,1′:4,5]indeno[1,2-d][1,3]dioxole-6b-carbothioate], 2.8 nM; under `C[C@]12C=CC(=O)C=C1[C@@H](F)C[C@H]1[C@@H]3C[C@H]4O[C@@H](c5ccccc5)O[C@@]4(C(=O)SCC#N)[C@@]3(C)C[C@H](O)[C@@]12F` [Example 31, S-(Cyanomethyl)(4aS,4bR,5S,6aS,6bS,9aR,10aS,10bS,12S)-4b,12-difluoro-5-hydroxy-4a,6a-dimethyl-2-oxo-8-phenyl-2,4a,4b,5,6,6a,9a,10,10a,10b,11,12-dodecahydro-6bH-naphtho[2′,1′:4,5]indeno[1,2-d][1,3]dioxole-6b-carbothioate], 0.98 nM.
As for `CSC(=O)[C@@]12O[C@@H](c3cccs3)O[C@@H]1C[C@H]1[C@@H]3C[C@H](F)C4=CC(=O)C=C[C@]4(C)[C@@]3(F)[C@@H](O)C[C@@]12C` [Example 4, S-Methyl (4aS,4bR,5S,6aS,6bS,8S,9aR,10aS,10bS,12S)-4b,12-difluoro-5-hydroxy-4a,6a-dimethyl-2-oxo-8-(2-thienyl)-2,4a,4b,5,6,6a,9a,10,10a,10,11,12-dodecahydro-6bH-naphtho[2′,1′:4,5]indeno[1,2-d][1,3]dioxole-6b-carbothioate], the figure is 0.96 nM.
As for `C[C@]12C=CC(=O)C=C1[C@@H](F)C[C@H]1[C@@H]3C[C@H]4OC(c5ccc(Cl)cc5)O[C@@]4(C(=O)SCC#N)[C@@]3(C)C[C@H](O)[C@@]12F` (stereo partly drawn) [Example 28, S-(Cyanomethyl)(4aS,4bR,5S,6aS,6bS,9aR,10aS,10bS,12S)-8-(4-chlorophenyl)-4b,12-difluoro-5-hydroxy-4a,6a-dimethyl-2-oxo-2,4a,4b,5,6,6a,9a,10,10a,10b,11,12-dodecahydro-6bH-naphtho[2′,1′,4,5]indeno[1,2-d][1,3]dioxole-6b-carbothioate], the IC50 was 1.3 nM.
Under `C[C@]12C=CC(=O)C=C1[C@@H](F)C[C@H]1[C@@H]3C[C@H]4OC(c5cccc(C#N)c5)O[C@@]4(C(=O)SCC#N)[C@@]3(C)C[C@H](O)[C@@]12F` (stereo partly drawn) [Example 25, S-(Cyanomethyl)(4aS,4bR,5S,6aS,6bS,9aR,10aS,10bS,12S)-8-(3-cyanophenyl)-4b,12-difluoro-5-hydroxy-4a,6a-dimethyl-2-oxo-2,4a,4b,5,6,6a,9a,10,10a,10b,11,12-dodecahydro-6bH-naphtho[2′,1′:4,5]indeno[1,2-d][1,3]dioxole-6b-carbothioate] stands 0.7 nM.
On to `CSC(=O)[C@@]12OC(c3ccc(C(F)(F)F)cc3)O[C@@H]1C[C@H]1[C@@H]3CCC4=CC(=O)C=C[C@]4(C)[C@H]3[C@@H](O)C[C@@]12C` (stereo partly drawn) [Example 41, S-Methyl (4aR,4bS,5S,6aS,6bS,9aR,10aS,10bS)-5-hydroxy-4a,6a-dimethyl-2-oxo-8-[4-(trifluoromethyl)phenyl]-2,4a,4b,5,6,6a,9a,10,10a,10b,11,12-dodecahydro-6bH-naphtho[2′,1′:4,5]indeno[1,2-d][1,3]dioxole-6b-carbothioate], for which the IC50 was 2.2 nM.

As usually defined, the IC50 is the point on the concentration scale where inhibition reaches its midpoint.
